Reference: the CheMixHub viscosity set

Experiment: xn = mol fraction of the nth substance listed

ClC(Cl)(Cl)Cl + O=[N+]([O-])c1ccccc1
101 kPa
Conditions	viscosity [mPa·s]
298.15 K, x1 = 0.17	1.613
298.15 K, x1 = 0.35	1.411
298.15 K, x1 = 0.55	1.224
298.15 K, x1 = 0.76	1.099
303.15 K, x2 = 0.0951	0.8421
303.15 K, x2 = 0.1913	0.8672
303.15 K, x2 = 0.2891	0.8934
303.15 K, x2 = 0.3875	0.9219
303.15 K, x2 = 0.4865	0.9908
303.15 K, x2 = 0.5871	1.059
303.15 K, x2 = 0.6886	1.159
303.15 K, x2 = 0.7915	1.25
303.15 K, x2 = 0.8947	1.436

COc1cccc(C)c1 + CCCCCOC(C)=O
Conditions	viscosity [mPa·s]
298.15 K, 101 kPa, x1 = 0.5	0.8784

CC(C)[O-].CC(C)[O-].CC(C)[O-].CC(C)[O-].[Ti+4] + Cc1ccc(C)cc1
viscosity [mPa·s], 101.3 kPa
Conditions	x1 = 0.0401	x1 = 0.0871	x1 = 0.1382	x1 = 0.1994	x1 = 0.2719	x1 = 0.3593	x1 = 0.4654	x1 = 0.5987	x1 = 0.77
293.15 K	0.671	0.7098	0.7652	0.8373	0.9143	1.042	1.235	1.53	2.053
303.15 K	0.5881	0.6215	0.6649	0.7153	0.7695	0.855	0.9724	1.137	1.398
313.15 K	0.5226	0.5494	0.5813	0.6238	0.6641	0.7258	0.8058	0.9111	1.063
323.15 K	0.4655	0.4896	0.5162	0.5501	0.5849	0.6326	0.6922	0.7664	0.871

ClC(Cl)(Cl)Cl + Cc1ccccc1
viscosity [mPa·s], 101 kPa
Conditions	293.15 K	298.15 K	303.15 K	313.15 K
x1 = 0.1022	0.6227	0.5867	0.5527	0.4932
x1 = 0.1977	0.6508	0.6111	0.5749	0.5126
x1 = 0.3029	0.6875	0.6446	0.606	0.5394
x1 = 0.4043	0.7215	0.6753	0.634	0.5628
x1 = 0.4982	0.7585	0.712	0.6656	0.5897
x1 = 0.5988	0.7983	0.7461	0.6988	0.6181
x1 = 0.7091	0.8428	0.7861	0.7353	0.6485
x1 = 0.8107	0.8905	0.8298	0.7755	0.6831
x1 = 0.916	0.9415	0.88	0.8249	0.719
x2 = 0.1	–	0.8643	–	–
x2 = 0.2	–	0.8211	–	–
x2 = 0.3	–	0.7802	–	–
x2 = 0.4	–	0.7415	–	–
x2 = 0.5	–	0.7049	–	–
x2 = 0.6	–	0.6705	–	–
x2 = 0.7	–	0.6381	–	–
x2 = 0.8	–	0.6078	–	–
x2 = 0.9	–	0.5794	–	–
